One block for each compound: values may come before it.
What was measured:
A549 cells [1] = assay: PGE2 levels in medium of IL1-beta stimulated A549 cells; format: cell-based; settings: for PGE2 induction compared with SW033291: 4 nM to 2500 nM
recombinant 15-PGDH [2] = molecular target: T1, recombinant 15-PGDH (Homo sapiens (Human), UniProt P15428); assay: Inhibition of enzymatic activity of recombinant 15-PGDH in vitro (NADH generation); format: biochemical
recombinant 15-PGDH [3] = molecular target: T1, recombinant 15-PGDH; assay: Melting temperature shift of recombinant 15-PGDH (SYPRO Orange); format: binding
[4] = test system: 15-PGDH-luciferase fusion reporter in V9m, LS174T and V503 cells; assay: 15-PGDH-luciferase fusion gene reporter induction in colon cancer cell lines; format: cell-based; settings: for luciferase activity of 15-PGDH luciferase fusion cells: V9m, LS174T, V503, various concentrations
[5] = test system: wild-type mouse bone marrow; assay: Hematopoietic colonies from bone marrow treated ex vivo; format: cell-based; settings: 1 uM, ex vivo on ice 2 hours; compared with SW033291
Excerpt: Treated marrow is again then plated into methylcellulose for counting of hematopoietic colonies.

15-PGDH mRNA = 15-PGDH mRNA levels in colon cancer cell lines by real-time PCR; format: cell-based; settings: treated colon cancer cell lines, real-time PCR
Excerpt: In these studies parental cell lines (not containing the 15-PGDH-luciferase reporter) are employed.

lethally irradiated mice = assay: Homing of CFSE dye labeled bone marrow cells in lethally irradiated mice; format: in vivo, mouse
Description: Drugs are administered following radiation, following the transplant, and again at 8 hours after the transplant.

mice = assay: Immediate toxicity in mice; format: in vivo; settings: over 24 hours, IP 50 mg/kg body weight
Solubility in water = format: physicochemical; settings: pH=3
[6] = test system: mouse tissues (colon, bone marrow, liver, lung); assay: PGE2 in mouse tissues after IP injection; format: in vivo
Description: Shown is measurement by Elisa of PGE2 (ng PGE2/mg of tissue protein) from 4 mouse tissues: lung, liver, colon and bone marrow. […] Tissues were harvested for PGE2 assay at either 2 hour (2 h) or 3 hour (3 h) time points following drug injection.

[7] = Chemical stability in aqueous solutions; format: physicochemical; settings: over broad pH range
[8] = Stability with liver extracts; format: in vitro ADME; settings: incubated with mouse, rat and human liver extracts
cell culture = assay: Toxicity in a cell culture assay (decrease of cell numbers); format: cell-based; settings: concentration needed to decrease cell numbers in a cell culture assay
Description: (§1) Time to inhibition refers to the time needed to inhibit the generation of NADH by 15-PGDH from the moment with drug is added into the reaction mix. Delta Tm refers to the shift in melting temperature of recombinant 15-PGDH in the presence of drug (with cofactor NADH also present). Concentration of Full Cell Line Reporter Induction refers to the concentration of drug that needs to be added to reporter cell line to achieve maximal induction of the 15-PGDH-luciferase gene fusion reporter cassette, as measured by luciferase assays. Hepatocyte stability refers to the half-life of compound in the presence of hepatocytes in culture. Toxicity refers to the concentration of compound needed to decrease cell numbers in a cell culture assay.

A549 cells [9] = assay: Cellular toxicity on A549 cells by CellTiter-Glo; format: cell-based; settings: 24 hours, concentrations of up to 10 μM
Description: FIGS. 38(A-C) show assays of cellular toxicity on A549 cells at 24 hours of 15-PGDH inhibitors as assayed by CellTiter-Glo measurement.

Hepatocyte stability = format: in vitro ADME; settings: hepatocytes in culture; read-out: Hepatocyte stability T½
Description: as §1

T1 sequence (P15428 whole entry): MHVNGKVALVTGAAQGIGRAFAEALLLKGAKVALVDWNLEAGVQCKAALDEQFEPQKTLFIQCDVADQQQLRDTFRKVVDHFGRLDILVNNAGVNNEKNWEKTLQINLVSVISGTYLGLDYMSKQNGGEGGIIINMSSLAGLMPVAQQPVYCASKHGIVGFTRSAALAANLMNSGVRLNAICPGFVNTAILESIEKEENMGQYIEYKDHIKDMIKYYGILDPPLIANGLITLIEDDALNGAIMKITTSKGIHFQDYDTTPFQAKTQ

Compound: CCCC[S+]([O-])c1sc2nc(-c3nccs3)cc(-c3nccs3)c2c1N (centres unmarked) [SW209124, 2-(butylsulfinyl)-4,6-di(thiazol-2-yl)thieno[2,3-b]pyridin-3-amine]
PGE2 induction compared with SW033291 (A549 cells [1]): increased activity relative to SW033291

Compound: CCCC[S@](C)(O)c1sc2nc(-c3cccs3)cc(-c3ccccc3)c2c1N [SW033291 isomer B]
IC50 lower than parent racemic mixture (recombinant 15-PGDH [2]): 40%
melting temperature (recombinant 15-PGDH [3]; Differential Scanning Fluorimetry, shifted from 50.5° C.): 68 °C
concentration at which some residual activity is seen ([4]; V9M, printed 'isomer B', context suggests isomer A): 3.2 µM
concentration giving full activity in reporter ([4]; Vaco-9M (V9M)): 0.1 µM

Compound: CCCCC(C)(C)[C@H](O)/C=C/[C@H]1[C@H](O)CC(=O)[C@@H]1C/C=C\CCCC(=O)O [dmPGE2, 16,16-dimethyl PGE2]
increase in number of bone marrow derived colonies [5]: slightly greater increase

direct binding to 15-PGDH by melting temperature shift (recombinant 15-PGDH [3]; 10 μM and 100 μM cofactor (NAD, NADH)): cannot be demonstrated to bind 15-PGDH
Compound: COc1ccc(OC)c(N(CC(=O)Nc2cccnc2)S(=O)(=O)c2ccccc2)c1 [SW054384]
15-PGDH mRNA levels (15-PGDH mRNA): do not in general alter 15-PGDH mRNA levels
PGE2 level in medium (A549 cells [1]; compound added 24 hours before IL1-beta, maintained next 26 hours): lower level of PGE2 produced
luciferase activity of 15-PGDH luciferase fusion cells [4]: increase luciferase activity

Compound: COc1ccc2c(c1)c(CC(=O)O)c(C)n2C(=O)c1ccc(Cl)cc1 [indomethacin, reference compound]
effect of SW033291 on homing in presence of COX inhibitor (lethally irradiated mice; SW033291 10 mg/kg IP plus Indomethacin): near completely blocked

Compound: CCCC[S+]([O-])c1sc2nc(-c3nccs3)cc(-c3nccn3C)c2c1N (centres unmarked) [SW209125, 2-(butylsulfinyl)-4-(1-methyl-1H-imidazol-2-yl)-6-(thiazol-2-yl)thieno[2,3-b]pyridin-3-amine]
PGE2 induction compared with SW033291 (A549 cells [1]): increased activity relative to SW033291

IC50 (recombinant 15-PGDH [2]; read-out: Enzyme Inhibitor IC50 (nM) at 5 nM 15-PGDH, 5 nM recombinant human 15-PGDH): 4910 nM
Compound: CC(=O)OCCCCS(=O)(=O)c1sc2nc(-c3cccs3)cc(-c3ccccc3)c2c1N [SW209128, 4-((3-amino-4-phenyl-6-(thiophen-2-yl)thieno[2,3-b]pyridin-2-yl)sulfonyl)butyl acetate]

Compound: CCCC[S+]([O-])c1sc2nc(-c3nccs3)cc(-c3cnc(C)n3C)c2c1N (centres unmarked) [formula (XIII)]
immediate toxicity (mice): no immediate toxicity
concentration inhibiting recombinant 15-PGDH (recombinant 15-PGDH [2]; enzyme concentration approximately 6 nM): 3 nM
solubility (Solubility in water): 1000 µg/mL
homing of hematopoietic stem cells following bone marrow transplantation (lethally irradiated mice; 10 mg/kg body weight): increases homing
PGE2 levels in colon, lung, liver and bone marrow ([6]; IP dose of 10 mg/kg body weight): elevates PGE2 levels
chemical stability in aqueous solutions [7]: chemically stable
chemical stability with liver extracts [8]: chemically stable

Compound: O=C(c1ccc2nc(-c3ccccc3)c(-c3ccccc3)nc2c1)N1CCCCC1 [SW145753]
15-PGDH mRNA levels (15-PGDH mRNA): do not in general alter 15-PGDH mRNA levels
15-PGDH activity in cells as reflected in PGE2 levels in medium (A549 cells [1]; IL1-beta 23 hours, compound added for the last 5 hours): clear inhibition of 15-PGDH activity in the cells
luciferase activity of 15-PGDH luciferase fusion cells [4]: increase luciferase activity

Compound: (+) SW209415
time of peak PGE2 ([6]; IP 0.5, 1.5 or 5 mg/kg): 3 h
induction of PGE2 in lung, liver, colon and bone marrow ([6]; IP 0.5, 1.5 or 5 mg/kg, 2 h and 3 h): induction of PGE2 in all 4 tissues tested

Compound: CCCC[S+]([O-])c1sc2nc(-c3nccs3)ccc2c1N (centres unmarked) [SW206992]
Time to inhibition (10 nM) (recombinant 15-PGDH [2]; time needed to inhibit generation of NADH by 15-PGDH after drug is added): ~2 min
Toxicity (cell culture): >7.5 µM
effect on CellTitre-Glo levels (A549 cells [9]): No effect
melting temperature (recombinant 15-PGDH [3]; 10 μM protein, 20 uM compound, 100 μM NAD(+), control 49): 59 degrees
exposure needed for maximal reporter induction ([4]; 24 hours, three cell line backgrounds): ≥ 1000 nM
Concentration for Full Cell Line Reporter Induction ([4]; maximal induction of 15-PGDH-luciferase reporter): >1 µM

Compound: CCCCC[C@H](O)/C=C/[C@H]1[C@H](O)CC(=O)[C@@H]1C/C=C\CCCC(=O)O [PGE2]
increase in number of bone marrow derived colonies [5]: lesser increase

half-life (Hepatocyte stability): 1.33 h
Compound: CCCC[S+]([O-])c1sc2nc(-c3cccs3)ccc2c1N (centres unmarked) [SW206980]
Toxicity (cell culture): >7.5 µM
effect on CellTitre-Glo levels (A549 cells [9]): No effect
